Measurements from patent US11542298B2, “Hydroxysteroid compounds, their intermediates, process of preparation, composition and uses thereof” (Epirium Bio Inc., priority 2014, dated 2023).

System: AMP KINASE
Assay: AMP KINASE phosphorylation, cell-based fluorescent ELISA (BioAssay Systems)
Experimental: The compounds of the present invention were tested for their activity on AMP KINASE. The activity on AMP KINASE was evaluated by quantitative fluorescent immunoenzymatic assay of AMP KINASE phosphorylation status in cultured cells. The 5-AMP-activated protein kinase (AMP KINASE) is a key sensor of intracellular energy balance. AMP KINASE is activated in response to an increase in the AMP/ATP ratio which can be caused by a number of factors such as muscle contraction, starvation, or hypoxia. AMP KINASE is a heterotrimeric protein complex comprising of α—(63 kDa), β—(38 kDa) and γ—(38 kDa) subunits. For each subunit, isoforms have been identified (α1, α2, β1, β2, γ1, γ2, γ3) which theoretically allow the formation of 12 different proteins. The α-subunit contains a serine/threonine kinase domain and the regulatory subunits contain binding sites for AMP and ATP (γ-subunit) and for glycogen (β-subunit). AMP KINASE is activated by phosphorylation on Thr-172 within the catalytic domain. AMP binding results in a 2 to 5-fold increase in AMP KINASE activity compared to the basal level. Binding of AMP to the γ-subunit causes allosteric activation of the kinase and induces a conformational change in the kinase domain that protects AMP KINASE from dephosphorylation of Thr-172.
BioAssay Systems' cell-based ELISA measure phosphorylated AMP KINASE in whole cells and normalizes the signal to the total protein content. The antibody recognizes both α-subunits and, thus, can be used for cells from all tissues (human, mouse, rat). This simple and efficient assay eliminates the need for cell lysate preparation and can be used to study AMP KINASE regulation in short-term and long-term assays. In this assay, cells grown in 96-well plates are fixed and permeabilized in the wells. AMP KINASE phosphorylation (pAMPK) is measured using a fluorescent ELISA followed by total protein measurement in each well.
A few illustrative compounds of the present invention were tested at 10 nM and the AMPkinase activation of the compounds is listed at Table 2: […]

| SMILES | AMPKinase Activation at 10 nM |
| --- | --- |
| C[C@]12CCC(=O)NC1=CCC1C2[C@@H](O)C[C@]2(C)C(=O)CCC12 (stereo partly drawn) [Compound 1005, (4aR,5S,6aS)5-hydroxy-4a,6a-dimethyl-4,4a,4b,5,6,6a,9,9a,9b,- 10-decahydro-1H-indeno[5,4-f]-quinoline-2,7(3H,8H)-dione] | 1.85 |
| CC(=O)C1CCC2C3CC=C4NC(=O)CC[C@]4(C)C3[C@@](C)(O)C[C@]12C (stereo partly drawn) [Compound 1008, (4aR,5S,6aS)-7-acetyl-4,4a,4b,5,- 6,6a,7,8,9,9a,9b,10-dodecahydro-5-hydroxy-4a,5,6a-trimethyl-1H-indeno[5,4-f]quinolin-2(3H)-one] | 1.97 |
| C[C@]12C=CC(=O)C=C1CCC1C2[C@@H](O)C[C@@]2(C)C1CC[C@@H]2C(=O)O (stereo partly drawn) [Compound 1013, (10R,11S,13S,17S)-11-hydroxy-10,13-dimethyl-3-oxo-6,7,8,9,- 10,11,12,13,14,15,16,17-dodeca-hydro-3H-cyclopenta[a]-phenan-threne-17-carboxylic acid] | 1.79 |
| CN(C)C(=O)[C@H]1CCC2C3CCC4=CC(=O)C=C[C@]4(C)C3[C@@H](O)C[C@@]21C (stereo partly drawn) [Compound 1014, (10R,11S,13S,17S)-11-hydroxy-N,N,10,13-tetramethyl-3-oxo-6,7,8,9,10,11,12,13,14,15,16,17-dodecahydro-3H-cyclopenta[a]-phenanthrene-17-carboxamide] | 1.80 |
| CC(=O)[C@H]1CCC2C3CCC4=CC(=O)C=C[C@]4(C)C3[C@@H](O)C[C@@]21C (stereo partly drawn) [Compound 1015, (10R,11S,13S,17S)-17-acetyl-11-hydroxy-10,13-dimethyl-6,7,8,9,- 10,11,12,13,14,13,16,17-dodeca-hydro-3H-cyclopenta[a]-phenan-thren-3-one] | 2.23 |
| CC(O)[C@H]1CCC2C3CCC4=CC(=O)C=C[C@]4(C)C3[C@@H](O)C[C@@]21C (stereo partly drawn) [Compound 1016, (10R,11S,13S,17S)-11-hydroxy-17-((R)-1-hydroxyethyl)-10,13-dimethyl-6,7,8,9,10,11,12,13,- 14,15,16,17-dodecahydro-3H-cyclopenta[a]phenanthren-3-one] | 2.38 |
| C[C@]12CCC(=O)NC1=CCC1C2[C@@H](O)C[C@@]2(C)C1CCC21OCCO1 (stereo partly drawn) [Compound 1017, (4a′R,5′S,6a′S)-5′-hydroxy-4a′,6a′-dimethyl-3′,4′,4a′,4b′,5′,6′,6a′,8′,- 9′,9a′,9b′,10′-dodecahydrospiro-[[1,3]dioxolane-2,7′-indeno[5,4-f]-quinolin]-2′(1′H)-one] | 2.08 |
| C[C@]12CCC(=O)NC1=CCC1C2[C@](C)(O)C[C@]2(C)C(=O)CCC12 (stereo partly drawn) [Compound 1018, (4aR,5R,6aS)-5-hydroxy-4a,5,6a-trimethyl-4,4a,4b,5,6,6a,9,9a,9b,- 10-decahydro-1H-indeno[5,4-f]-quinoline-2,7(3H,8H)-dione] | 2.19 |
| C[C@]12C[C@H](O)C3C(CC=C4NC(=O)CC[C@@]43C)C1CCC2O (stereo partly drawn) [Compound 1019, (4aR,5S,6aS)-5,7-dihydroxy-4a,6a-dimethyl-4,4a,4b,5,6,6a,- 7,8,9,9a,9b,10-dodecahydro-1H-indeno[5,4-f]quinolin-2(3H)-one] | 2.23 |
| C[C@]12CCC(=O)NC1=CCC1C2[C@@H](O)C[C@]2(C)/C(=N\O)CCC12 (stereo partly drawn) [Compound 1021, (4aR,5S,6aS,Z)-5-hydroxy-7-(hydroxyimino)-4a,6a-dimethyl-4,4a,4b,5,6,6a,7,8,9,9a,9b,10-dodecahydro-1H-indeno[5,4-f]-quinolin-2(3H)-one] | 2.23 |
| CN1C(=O)CC[C@@]2(C)C1=CCC1C3CCC(O)[C@@]3(C)C[C@H](O)C12 (stereo partly drawn) [Compound 1022, (4aR,5S,6aS)-5,7-dihydroxy-1,4a,6a-trimethyl-4,4a,4b,5,6,6a,- 7,8,9,9a,9b,10-dodecahydro-1H-indeno[5,4-f]quinolin-2(3H)-one] | 2.87 |
